Test results: patent US20240173456A1, “THERAPEUTIC COMPOSITIONS FOR WOUND TREATMENT” (GlycoSurf, Inc., priority 2022, published 2024)

How the values were obtained:
hDFn cells [1] = experiment: CyQUANT Direct assay, DNA content of living cells; type: cell-based, human; details: vs control
Description: (§1) PrestoBlue™ and CyQUANT™ Direct Assay. PrestoBlue™ and CyQuant™ (PBCQ) direct confirmation assay (from ThermoFisher®) for cell viability was used to assess the biocompatibility of hDFn cells in DMEM complete media with varying concentrations of rhamnolipids. Passage 5 hDFn cells were seeded at 11,200 cells/mL density into black wall, clear bottom 96-well tissue culture plates. The cells were placed inside the standing incubator at 37° C. and 5% CO2 until reaching 70-90% confluence. […] The plate layout included blank wells containing DMEM complete media and the corresponding rhamnolipid concentrations. Following 24 hours, 100 μL was removed from each well and replaced with 10 μL of the PrestoBlue reagent. The plates were then incubated for 20 minutes at 37° C. and 5% CO2 prior to being placed in the Biotek® Synergy HT fluorescence microplate reader at 590 nm with a gain value of 35. Afterward, 100 μL of the CyQuant reagent composition was added to all wells and incubated for 60 minutes. The plates were read using the same microplate reader at 528 nm with a gain of 70. The relative fluorescence units (RFU) were produced for all wells, correlating with the metabolic output per unit of DNA.
(§2) Statistical Analysis. Statistically significant differences were determined using GraphPad Prism. The results of the cellular migration assay were analyzed with a one-way ANOVA and Tukey post hoc evaluation. The PBCQ assay was analyzed using a one-way ANOVA and Tukey post hoc evaluation. For all experiments, a p-value<0.05 was considered statistically significant in this study.
(§3) The control scaffold, the SEM image of which is shown in FIG. 5A, was not impregnated with rhamnolipids, or had hDFn cells seeded onto it. In particular, the observable porosity is not structurally different in FIG. 5A compared to the other images (FIGS. 5B-5E) depicting impregnated scaffolds without cells. As the percentage of rhamnolipids increased, the porosity of the scaffold remained relatively similar to the control. […] Visually, the hDFn cells appeared to have been able to adhere and colonize onto impregnated scaffolds which could be further explored to better understand the cytocompatibility of rhamnolipids and if their morphology is influenced by the concentration of the surfactant. PrestoBlue™ and CyQUANT™ Direct Assay. The PrestoBlue™ and CyQUANT™ Direct assays were used to determine the cellular compatibility of hDFn cells when in the presence of rhamnolipids. The PrestoBlue™ assay is a resazurin-based solution when upon entering a living cell, the reagent is reduced to resorufin which is red in color and fluorescent. The overall health of the cell can be observed by changes in fluorescence and subsequently absorbance. […] The CyQUANT™ Direct assay is a cell-permeant green nucleic acid stain that is combined with a masking dye reagent. The masking dye stops the staining of non-viable cells or cells with compromised cell membranes, resulting in only the viable cells being stained. The CyQUANT™ Direct assay measures proliferation as well as membrane integrity. The data was evaluated using GraphPad Prism to run a one-way ANOVA.

hDFn cells [2] = experiment: PrestoBlue assay, metabolic activity; type: cell-based, human; details: vs control
Description: as §1, §2, §3

[3] = test system: Human dermal neonatal fibroblasts (hDFn); experiment: Rhamnolipid vs. thioglycolipid comparative scratch assay; type: cell-based; details: 6.25-50 μM, over 24 hours, particularly at the 4-hour and 8-hour time marks, FIGS. 9, 10A-10B
Description: Rhamnolipid vs. Thioglycolipid Comparative Scratch Assays. Human dermal neonatal fibroblasts (hDFn) were seeded in 3×12-well plates at 10,000 cell/cm^2. Media (Dulbecco's Modified Eagle Medium (DMEM)) was changed every 48 hours. Plates were imaged every 4 hours for 24 hours. Plates were analyzed via MATLAB® and RStudio®.

[4] = test system: neonatal human dermal fibroblast (hDFn) cells; experiment: Cellular migration assay (scratch, mock wound), with or without uranyl nitrate (depleted uranium) exposure; type: cell-based
Description: Preparation of Depleted Uranium Solution. Approximately 0.005 g of uranyl nitrate (UN) crystals, purchased from American Scientific were weighed and solubilized in 40 mL of Dulbecco's modified eagle medium (DMEM) containing 10% fetal bovine serum (FBS) (DMEM complete) from Gibco® to create an initial working stock solution. Uranyl nitrate stock underwent 60 seconds of pipette mixing to confirm proper disintegration prior to vacuum sterilization using a 0.22 μm filter. Molecular weight was used to calculate the appropriate starting molarity before utilizing weight-volume concentrations to obtain the following experimental dilutions: 0.1 μM, 0.2 μM, 1.0 μM, 2.0 μM, 10 μM, 20 μM made from the sterile-filtered stock solution.
Cell Culture of Neonatal Human Dermal Fibroblasts (hDFn). Passage one neonatal human dermal fibroblast (hDFn) cells were purchased from Cell Applications, Inc. (P1, lot #1734). The hDFn cells were incubated at 37° C., 5% CO2, and passaged using a T-75 tissue culture flask from Corning, completing media changes every 48 hours until 90% confluency was met. Cells were subcultured at a density of 10×10^5 cells/mL, frozen in DMEM containing 10% DMSO, and stored at −80° C. for 24 hours before being placed in liquid nitrogen vapor phase for long-term preservation. The subsequent process was repeated until passage 4 isolates were frozen down.
Rhamnolipid Solution. About 0.0125 g of rhamnolipids (Rha-C10-C10) from Glycosurf were weighed and diluted in 50 mL of 1× phosphate-buffered saline (PBS) to obtain a 200 μM rhamnolipid stock solution. The solution was heated prior to being vortexed for maximum dissolution and sterilized through a vacuum using a 0.22 μm filter. The molarity of rhamnolipid stock solution was found using actual mass ([…]) and molecular weight to calculate experiment dilutions of 6.25 μM, 50 μM, and 100 μM.
Cellular Migration Assay. Human neonatal dermal fibroblasts (hDFn) passage 4, were seeded into a T-75 flask at 10×10^5 cells/mL density and grown in a standing incubator at 37° C., 5% CO2. Once 90% confluence was reached, hDFn were subcultured into 12-well plates, and respective UN treatments with or without rhamnolipids were added. After 24 hours, contents were removed, and the monolayer of fibroblasts was scratched vertically using a sterile pipet tip creating the mock wound (FIG. 1). Wells were then washed twice with Hanks' Balanced Salt Solution (HBSS). Respective treatments were added back into wells and cellular migration rates were monitored and imaged over time (0 hours, 12 hours, and 24 hours). Percent closure rates were collected using MATLAB®.
as §2

CCCCCCC[C@H](CC(=O)O)OC(=O)C[C@@H](CCCCCCC)O[C@@H]1O[C@@H](C)[C@H](O)[C@@H](O)[C@H]1O [rhamnolipids, Rha-C10-C10]
faster healing: wound healing (percent closure) compared with thioglycolipid compositions [3]
statistically significant increase: cellular DNA content (RFU) (hDFn cells [1]; low concentration of rhamnolipids (6.25 μM), 24 hours, n=6 (FIG. 7B), Tukey's p<0.001) | metabolic activity (RFU) (hDFn cells [2]; 6.25 μM rhamnolipids, 24 hours, n=6 (FIG. 7A), Tukey's p<0.001) | metabolic activity (RFU) (hDFn cells [2]; 6.25 μM rhamnolipids, n=12 (FIG. 8A), Tukey's p<0.001) | metabolic activity (RFU) (hDFn cells [2]; 50 μM rhamnolipids, 24 hours, n=6 (FIG. 7A), Tukey's p<0.001) | metabolic activity (RFU) (hDFn cells [2]; 50 μM rhamnolipids, n=12 (FIG. 8A), Tukey's p<0.001) | cellular migration (percent closure) ([4]; absence of UN, high dose of rhamnolipids (50 μM), 12 hours post-wound, vs control, Tukey's p=0.001) | percent closure (migration rate) ([4]; hDFn exposed to 0.1 μM UN + 50 μM rhamnolipids, 12 hours post-wound, vs control, p-value=0.021) | percent closure (migration rate) ([4]; hDFn exposed to 1.0 μM UN + 6.25 μM rhamnolipids, 12 hours post-wound, p-value=0.012) | percent closure (migration rate) ([4]; hDFn exposed to 1.0 μM UN + 50 μM rhamnolipids, 12 hours post-wound, vs control, p-value<0.001) | percent closure (migration rate) ([4]; hDFn exposed to 10 μM UN + 50 μM rhamnolipids, 12 hours post-wound, vs control, p-value=0.009)
statistically significant decrease: cellular DNA content (RFU) (hDFn cells [1]; 100 μM rhamnolipids, n=12 (FIG. 8B)) | metabolic activity (RFU) (hDFn cells [2]; maximum concentration of rhamnolipids (100 μM), n=12 (FIG. 8A))
no statistically significant difference: living DNA content (RFU) (hDFn cells [1]; high concentration of rhamnolipids (50 μM), 24 hours, n=6 (FIG. 7B)) | living DNA content (RFU) (hDFn cells [1]; high concentration of rhamnolipids (50 μM), n=12 (FIG. 8B)) | living DNA content (RFU) (hDFn cells [1]; low concentration of rhamnolipids (6.25 μM), n=12 (FIG. 8B)) | mean percent closure ([4]; 24 hours post-wound, across the different treatments (considered closed)) | mean percent closure ([4]; absence of UN, low concentration of rhamnolipids (6.25 μM), vs control)
